{"source": "patent US8551312B2", "about": "“Process to prepare amino acid-N, N-diacetic acid compounds” (Akzo Nobel N.V., priority 2006, dated 2013)", "type_in_all_cases": "physicochemical", "key": {"[1]": {"assay": "Conductivity of c. 40 wt % chelate solution (Knick Konductometer 703)", "settings": "c. 40 wt % chelate in water", "method": "(§1) Commercial Dissolvine® GL-38, Dissolvine® H-40 ex Akzo Nobel Chemicals, and Trilon® M ex BASF were used as reference GLDA-Na4, HEDTA-Na3, and MGDA-Na3, respectively. The partially acidified chelates (40% in water) were prepared by addition of the corresponding chelate acid (in water) to the commercial product until the highest pH was obtained at which less than 0.1 wt % fully neutralized chelate is present. GLDA-H4 was prepared by electrodialysis and MGDA-Nax<3H3−x was made from Trilon® M by ion exchange. The desired pH was derived from the species distribution graphs that are based on the protonation constants. The resulting chelate solutions all have a chelate content (Fe-TSV) between 38.3 and 43 wt % of the salt actually present.\nThe conductivity was measured with a Knick Konductometer 703."}, "[2]": {"assay": "pH of the c. 40 wt % chelate solution by glass electrode", "settings": "c. 40 wt % chelate solution as such", "method": "as §1, with “constants.” for “constants. The resulting chelate solutions all have a chelate content (Fe-TSV) between 38.3 and 43 wt % of the salt actually present.”\nThe pH of the c. 40 wt % chelate solution as such was determined by a glass electrode."}, "[3]": {"assay": "Viscosity (Brookfield DV-II+ pro viscometer, S-18 spindle)", "settings": "c. 40 wt % chelate in water", "method": "as §1\nThe viscosity was determined with a Brookfield DV-II+ pro viscometer, using a S-18 spindle. The temperature was maintained with a cryostat."}, "[4]": {"assay": "Corrosiveness against aluminium, weight loss of submerged plates", "settings": "aluminium plates submerged in c. 40 wt % chelate solution at RT", "method": "as §1\nThe corrosiveness against aluminium was determined using unspecified aluminium plates. The aluminium plates of 6×3×0.2 cm, supplied by the technical service, were cleaned with ethanol cleaner and dried and the weight of the plates was measured. Subsequently, the plates were completely submerged in the commercial or partially acidified chelate solution and kept at RT. In time, the plates were removed from the solutions, rinsed, dried by technical air, and weighted. The corrosiveness was expressed as the weight loss after a certain period of time. Furthermore, the aluminium plates and the chelate solution were visually inspected to evaluate the corrosion process."}}, "data": [{"molecule": "CC(C(=O)[O-])N(CC(=O)[O-])CC(=O)[O-].[Na+].[Na+].[Na+]", "note": "(stereo not drawn) [MGDA-Na3]", "values": [{"measurement": "Conductivity (mS/cm) at 20° C.", "setting": "[1]", "result": 25.8, "unit": "mS/cm"}, {"measurement": "pH", "setting": "[2]", "result": 13.5}, {"measurement": "Viscosity at 20° C. (Mpas)", "setting": "[3]", "result": 26, "unit": "Mpas"}, {"measurement": "Viscosity at 40° C. (Mpas)", "setting": "[3]", "result": 11.0, "unit": "Mpas"}, {"measurement": "Corrosiveness Aluminium (% weigth loss after 70 hr)", "setting": "[4]", "result": 6, "unit": "% weigth loss"}]}, {"molecule": "O=C([O-])CN(CCO)CCN(CC(=O)[O-])CC(=O)[O-].[Na+].[Na+].[Na+]", "note": "[HEDTA-Na3]", "values": [{"measurement": "Conductivity (mS/cm) at 20° C.", "setting": "[1]", "result": 20.29, "unit": "mS/cm"}, {"measurement": "pH", "setting": "[2]", "result": 13.4}, {"measurement": "Viscosity at 20° C. (Mpas)", "setting": "[3]", "result": 31, "unit": "Mpas"}, {"measurement": "Viscosity at 40° C. (Mpas)", "setting": "[3]", "result": 14.7, "unit": "Mpas"}, {"measurement": "Corrosiveness Aluminium (% weigth loss after 70 hr)", "setting": "[4]", "result": 7, "unit": "% weigth loss"}]}, {"molecule": "tetrasodium glutamic acid-N,N-diacetate [GLDA-Na4]", "values": [{"measurement": "Conductivity (mS/cm) at 20° C.", "setting": "[1]", "result": 20.9, "unit": "mS/cm"}, {"measurement": "pH", "setting": "[2]", "result": 13.5}, {"measurement": "Viscosity at 20° C. (Mpas)", "setting": "[3]", "result": 51.5, "unit": "Mpas"}, {"measurement": "Viscosity at 40° C. (Mpas)", "setting": "[3]", "result": 21.4, "unit": "Mpas"}, {"measurement": "Corrosiveness Aluminium (% weigth loss after 70 hr)", "setting": "[4]", "result": 7, "unit": "% weigth loss"}]}]}
